The record followed here is patent US6015820A, “4-Aryl-thio-pyridin-2(1H)-ones, medicines containing them and their uses in the treatment of illnesses linked to HIV” (priority 1995, dated 2000).

The subject of one data set is HIV-1 LAI. The data set can be described thus: anti-HIV-1 activity: replication of HIV-1 LAI on CEM-SS cells. In kind it is cell-based. To be noted: Table 2, HIV-1 LAI, CEM-SS cells; for IC50: Human immunodeficiency virus 1, 120 h, 5 days, read-out: IC50, anti-HIV-1 activity. As to the method:
The CEM-SS and the HIV-1 resistant to Nevirapine (N119) carrying a point mutation at codon 181 of the IT, were supplied respectively by P. NARA and D. RICHMAN through the intermediary of the AIDS Research and Reference Reagent Program, Division of AIDS, NIAID, NIH (USA) (Catalogue references : No. 776 and No. 1392).
(§1) The virus production was measured by quantifying the activity of the inverse transcriptase associated with viral particles released into the culture supernatant. In short, cells were infected with 100 TCID50 for 30 minutes; after adsorption of the virus, unbound particles were removed by two washings and the cells were cultivated in the presence of different concentrations of the compounds tested for 5 days before determining the viral production. The concentration inhibiting 50% of the viral multiplication (IC50) came from the computer plot of the median effect of the dose effect results (Chou et al. Elsevier Science Publishers, Cambridge U.K. (1985), 19-28).

Data set [1] relates to HIV-1 resistant to Nevirapine (N119). Put plainly: microbe, parasite or virus in culture. In kind it is cell-based. The note with it: for IC50: Human immunodeficiency virus 1, CEM-SS, read-out: IC50, strain resistant to Nevirapine; for SI (selectivity index): Table 3, strain resistant to Nevirapine. How it is done:
The effects of the compounds were evaluated on the replication of HIV-1 (see Table 2) on CEM-SS cells (cell lines of the lymphocytic lineage) strongly infected with HIV-1 LAI as described by Moog et al. (Antiviral Research (1994), 24, 275-288). The CEM-SS and the HIV-1 resistant to Nevirapine (N119) carrying a point mutation at codon 181 of the IT, were supplied respectively by P. NARA and D. RICHMAN through the intermediary of the AIDS Research and Reference Reagent Program, Division of AIDS, NIAID, NIH (USA) (Catalogue references : No. 776 and No. 1392).
as §1

Data set [2] in a line: cytotoxicity on non-infected cells (MTT test). In kind it is cell-based. To be noted: human; Table 2; non-infected CEM-SS cells, MTT, 5 days. How it is done: (§2) In parallel experiments, the cytotoxicity of the molecules was measured on non-infected cells, after an incubation of 5 days in the presence of these molecules, by using a […] titration (MTT test) based on the ability of the mitochondrial dehydrogenases of the living cells to reduce 3-(4,5-dimethylthiazol-2-yl)-2,5-diphenyltetrazolium bromide in formazan (Mosmann et al. J. Immunol. Methods ([…]), 65, 55-63). The concentration cytotoxic at 50% (CC50) is the concentration at which the DO540 has been reduced to half and is calculated by using the program mentioned above.

For another data set, the system named is CEM-SS cells. The data set can be described thus: cytotoxicity on non-infected cells (MTT test). In kind it is cell-based. The note with it: MTT, 5 days. How it is done:
as §2

The next data set addresses T1, IT of recombinant HIV-1 (Human immunodeficiency virus type 1 group M subtype B, UniProt P03369).
T1 construct: purify the IT enzyme of the recombinant HIV-1; made in house; host or cells: yeast cells transformed with the pAB 24/IT-4 vector
Put plainly: inhibition of the inverse transcriptase of recombinant HIV-1. Type of data set: biochemical. How it is done:
Yeast cells transformed with the pAB 24/IT-4 vector were used to purify the IT enzyme of the recombinant HIV-1 as described by Sallafranque-Andreola et al. (1989 Eur. J. Biochem. 184, 364-374).
Incubation was carried out at 37° C. for 10 minutes in the presence of various matrix-primers.
a) Poly C-oligo dG: the reaction mixture contained a final volume of 0.05 ml, Tris-HCl 50 mM pH 8.0, MgCl2 5 mM, dithiothreitol 4 mM, 0.48 A260 /ml of poly C-oligo dG (5:1), 1.0 μCi of [^3 H]dGTP (28 Ci/mmole), dGTP 2 μM, KCl 80 mM, 1 μg of bovine serum albumin and IT 20-50 nM.
b) Poly A-oligo dT: the same conditions as in a), except that 0.48 A260 /ml of poly A-oligo dT (5:1), 0.5 μCi of [^3 H]dTTP (46 Ci/mmole), dTTP 20 μM were used.
The reactions were stopped by adding in the cold 1 ml of 10% trichloroacetic acid plus sodium pyrophosphate 0.1 M. The precipitates were filtered through nitrocellulose membranes, washed with 2% trichloroacetic acid, dried and counted in a PPO/POPOP/toluene scintillation mixture.
All the compounds were dissolved in dimethyl#sulphoxide (DMSO). The test samples were prepared in the presence of the same final concentration of DMSO. IC50 is the concentration required to inhibit the activity of the IT of the recombinant HIV-1 by 50%.

A further data set concerns isolated virion HIV-1LAI. The data set can be described thus: infectivity of the isolated virion after treatment with inhibitors (HT4LacZ cells). In kind it is cell-based. How it is done: H9 cells chronically infected with HIV-1LAI (10^8 /ml) were cocultivated with MT4 cells (10^8 /ml) for 48 hours in an RMPI medium supplemented by 10% of calf foetal serum (CFS). The cells were then removed by centrifugation and then the supernatant liquid was filtered (0.45 μm) to remove residual cells and cell debris.
After having been incubated with the various inhibitors, the viral supernatants (200 μl) were deposited in the filtering part of a VectaSpin tube (WHATMAN) fitted with an ANAPORE membrane of porosity 0.02 μm. For 10 minutes they were subjected to centrifugation, the acceleration of which reached 6000 g at the filtering membrane. The viral residuums thereby obtained (10-15 μl ) were washed 3 times under the same conditions with 500 μl of RPMI then restored to their initial volumes with RPMI containing 10% of CFS.
The HT4LacZ-1 cells were kept in a DMEM medium (glucose 4.5 g/l) supplemented with 10% of calf foetal serum in the presence of Gentamycin (50 mg/l). These cells stemmed from Hela cells in which had been cloned, on the one hand the gene coding for the human CD4 so as to render them susceptible to infection by the HIV (Chesebro and Wehrly, 1988, J. Virol., 62, 3779-3788), and on the other hand the gene for β-Galactosidase which, placed under the dependent of the LTR of the HIV-1 served as a marker for the viral infection (Rocancourt et al. (1990) J. Virol. 1990 64-6, 2660-2688). When the virus infects such cells after its integration into the cellular genome, the production of the regulatory protein TAT activates the LTR of the HIV. The result is an activation of the gene of β-Galactosidase which leads to its production in the intracellular medium and more particularly in the nucleus. It is this protein that serves as a marker of the infection.
The evening of day 0, the HT4LacZ-1 cells were diluted at the rate of 75000 cells per ml of medium. 100 μl of this suspension was then distributed over a flat bottomed plate with 96 wells and was cultivated overnight at 37° C. (5% of CO2).
The morning of day 1, the supernatant liquid was removed by aspiration. Each well was then complemented with 200 μl of the viral supernatant dilutions to be tested. Each dilution was made in a DMEM medium (glucose 4.5 g/l) supplemented with 10% of CFS. The plates were then placed in an environment at 37° C. in the presence of 5% of CO2.
After 48 hours of culture, the supernatant liquid was aspirated, then each well was washed 3 times in PBS before being complemented with 200 μl of developing buffer (Tris-HCl 50 mM pH=8.5, ONPG 5 mg/ml β-mercapto-ethanol 7 μl/ml Triton×100 0.05%). After 4 hours of incubation at 37° C., the optical density of each well was measured.
The concentration of each of the inhibitors of the IT of the HIV-1 was adjusted to 50 mM in DMSO. The later dilutions were carried out on RPMI 1640. 2 μl of suitable dilutions of each of these inhibitors were added to 198 μl of a freshly unfrozen viral suspension. After 3 hours of incubation at ambient temperature, these suspensions were filtered on 0.02 μ VecraSpin tubes, then washed 3 times with 500 μl of RPMI 1640. The viral residuums were then adjusted to 200 μL with the culture medium (RPMI-10% CFS), then tested with regard to their infectivity on HT4LacZ cells.

Like-named read-outs stand apart in the source and are kept apart here.

For `Cc1cc(C)cc(Sc2c(N)c(O)nc3ccccc23)c1` [Compound 8f, 3-amino-4-(3', 5'-dimethylphenyl)-thio-quinoline-2(1H)-one], the IC50 in the data set with HIV-1 LAI was 0.25 µM; in data set [1], 6.6 µM. Further, the “SI (selectivity index)” value in the data set with HIV-1 LAI was above 36; in data set [1], above 1.5. Further, the CC50 at 120 h in data set [2] was above 9 µM. Also, the CC50 in the data set with CEM-SS cells (Table 3, non-infected cells) was 8.2 µM.
For `CCC(=O)Nc1c(Sc2cc(C)cc(C)c2)c(C)c[nH]c1=O` [Compound 11c, 5-methyl-3-propionamido-4-(3', 5'-dimethylphenyl)thio-pyridin-2(1H)-one], in the data set on HIV-1 LAI, the IC50 was found to be 41.4 µM and the “SI (selectivity index)” value was above 2. For the same compound, in data set [2], the 50% cytotoxic concentration (CC50) at 120 h is above 100 µM. At IT of recombinant HIV-1, the IC50 was above 4 µM.
As to `CCc1cnc(O)c(N)c1Sc1cc(C)cc(C)c1` [Compound 8b, 3-amino-5-ethyl-4-(3', 5'-dimethylphenyl)thio-pyridin-2(1H)-one], in the data set with HIV-1 LAI, the IC50 is 0.01 µM and the “SI (selectivity index)” value is on record as above 1000. Further, in data set [1], the IC50 is 6.7 µM and the “SI (selectivity index)” value is given as above 1. Further, in data set [2], the CC50 at 120 h was above 10 µM. This compound gave a CC50 in the data set on CEM-SS cells (Table 3, non-infected cells) above 10 µM.
Regarding `CC(=O)Nc1c(Sc2cc(C)cc(C)c2)c(C)c[nH]c1=O` [Compound 11b, 3-acetamido-5-methyl-4-(3', 5'-dimethylphenyl)thio-pyridin-2(1H)-one], the IC50 was 0.067 µM in the data set with HIV-1 LAI, above 100 µM in data set [1] and above 4 µM at IT of recombinant HIV-1. Moreover, the “SI (selectivity index)” value in the data set with HIV-1 LAI was above 1492. The same compound yielded a CC50 at 120 h in data set [2] above 100 µM. For the same compound, in the data set with CEM-SS cells (Table 3, non-infected cells), the CC50 is above 100 µM.
With `CCc1cnc(O)c([N+](=O)[O-])c1Sc1cc(C)cc(C)c1` [Compound 7b, 5-ethyl-3-nitro-4-(3', 5'-dimethylphenyl)thio-pyridin-2(1H)-one], the “SI (selectivity index)” value in the data set with HIV-1 LAI is above 111. For the same compound, in data set [1], the IC50 came to 6.7 µM and the “SI (selectivity index)” value is recorded as above 1. The compound further came in with a CC50 at 120 h in data set [2] above 10 µM. The same compound registered a CC50 in the data set on CEM-SS cells (Table 3, non-infected cells) above 10 µM.
Consider `CCc1c(Sc2cc(C)cc(C)c2)cc(=O)[nH]c1C` [Compound 16, 5-ethyl-6-methyl-4-(3', 5'-dimethylphenyl)thio-pyridin-2(1H)-one], for which, in the data set with HIV-1 LAI, the IC50 was 0.5 µM and the “SI (selectivity index)” value is above 20. Also, the half-maximal cytotoxic concentration (CC50) at 120 h in data set [2] is above 10 µM. In addition, the IC50 at IT of recombinant HIV-1 came to 0.4 µM.
Turning to `CCc1c(C)nc(O)c(NC(C)=O)c1Sc1cc(C)cc(C)c1` [Compound 11g, 3-acetamido-5-ethyl-6-methyl-4-(3', 5'-dimethylphenyl)thio-pyridin-2(1H)-one], in the data set on HIV-1 LAI, the IC50 was 0.05 µM and the “SI (selectivity index)” value is above 1600. Further, in data set [1], the IC50 is 4.3 µM and the “SI (selectivity index)” value is above 23. In data set [2], this compound registered a CC50 at 120 h above 80 µM. The compound also yielded a CC50 in the data set with CEM-SS cells (Table 3, non-infected cells) above 100 µM.
For the compound `Cc1cccc(Sc2c(C)c[nH]c(=O)c2[N+](=O)[O-])c1` [Compound 7e, 5-methyl-3-nitro-4-(3'-methylphenyl)thio-pyridin-2(1H)-one], the CC50 at 120 h in data set [2] is above 10 µM. For the same compound, the IC50 on IT of recombinant HIV-1 was above 10 µM.
Consider `Cc1cc(C)cc(Sc2c([N+](=O)[O-])c(O)nc3ccccc23)c1` [Compound 7f, 3-nitro-4-(3', 5'-dimethylphenyl)-thiopuinoline-2(1H)-one], for which the results for the IC50 (in the data set on HIV-1 LAI; in data set [1]) were 3.8 µM and above 10 µM, respectively. Also, in the data set on HIV-1 LAI, the “SI (selectivity index)” value is on record as above 26. Also, the CC50 with CEM-SS cells (Table 2, non-infected CEM-SS cells) is above 100 µM; in the data set on CEM-SS cells (Table 3, non-infected cells), above 10 µM.
For the compound `Cc1c(Sc2ccccc2)n(COCc2ccccc2)c(=O)[nH]c1=O` [BPT, 1-benzyloxymethyl-6-(phenylthio)thymine, reference compound], at IT of recombinant HIV-1, the IC50 was found to be 0.4 µM.
With `Cc1cccc(Sc2c(C)c[nH]c(=O)c2N)c1` [Compound 8e], the IC50 with HIV-1 LAI was 1.4 µM; in data set [1], 41.5 µM; at IT of recombinant HIV-1 (read-out: IC50, inhibition of the inverse transcriptase, Table 5, IT of recombinant HIV-1), above 4 µM. For the same compound, the “SI (selectivity index)” value was above 55 with HIV-1 LAI and above 1 in data set [1]. The midpoint of cytotoxicity in data set [2], the CC50 at 120 h, lay at 78 µM.
On to `Cc1c(Sc2ccccc2)n(COCCO)c(=O)[nH]c1=O` [HEPT, 1-[(2-hydroxyethoxy)methyl]-6-(phenylthio)thymine], for which the activity at 1 µM with isolated virion HIV-1LAI (Human immunodeficiency virus 1, 1 μM inhibitor, 3 h, 100 TCID50, compared with viral supernatant subjected to same treatments, mean of 1 to 4 experiments, read-out: Activity of the isolated virions after treatment) is 121%. The activity at 10 µM in the data set on isolated virion HIV-1LAI (Human immunodeficiency virus 1, 10 μM inhibitor, 3 h, 100 TCID50, compared with viral supernatant subjected to same treatments, mean of 1 to 4 experiments, read-out: Activity of the isolated virions after treatment) is 141%. Moreover, the “activity on the isolated virion (in words)” value with isolated virion HIV-1LAI (isolated virion) was “totally inactive”. On IT of recombinant HIV-1, the IC50 was above 6 µM.
